Measurements from the supplement of paper PMC11208160.

Experiment: recombinant barcode read abundance after kanamycin selection (control-corrected) (log10(CPM+1)); higher = more efficient recombination; sequences stand for … in AGTGCAGAGAAAATCGGCCAGTTTTCTCTGCCTGCAGTCCGCATGCCGT…ATTTATGCAGCGGACTGCCTTTCTCCCAAAGTGATAAACCGGACAGTATCATGGACCGGTTTTCCCGGTAATCCGTATTTGCAAGGTTGGTTTCACT; site = the 11-nt target
Summary of the method: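 Duplicate cultures were plated either on chloramphenicol/ampicillin LB agar, serving as control, or on chloramphenicol/ampicillin/kanamycin with 0.1 mM IPTG. These came from a pooled E. coli library co-electroporated with a donor plasmid, each member pairing a target with an IS621 bridge RNA target-binding loop. Recombination efficiency equals averaged, control-corrected counts per million of recombinant-junction barcodes. It is listed as log10(CPM+1).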

“AGGCGGTCTTGGGTTCTAACCTGTTGCTTAA [AGGCGGTCTAA_LTGcore_CT_RTGcore_TT] (site AGGCGGTCTAA) (LTG core: CT, RTG core: TT)” and “AGGCGGTCTTGGGTTCTAACCTGTTGCTTGA [AGGCGGTCTAA_LTGcore_CT_RTGcore_TC] (site AGGCGGTCTAA) (LTG core: CT, RTG core: TC)” are within 0.2 log units of each other in “recombinant barcode read abundance (log10)” value: 0.0737 for the first, 0.107 for the second.

Going from “AGGCGGTCTTGGGTTCTAACCTGTTGCTTGC [AGGCGGTCTAA_LTGcore_CT_RTGcore_GC] (site AGGCGGTCTAA) (LTG core: CT, RTG core: GC)” to “AGGCGGTCTTGGGTTCTAACCTGTTGCTTGG [AGGCGGTCTAA_LTGcore_CT_RTGcore_CC] (site AGGCGGTCTAA) (LTG core: CT, RTG core: CC)”, the “recombinant barcode read abundance (log10)” value falls from 0.784 to 0.244.

“AGGCGGTGATGGGTTCTAACCTGTTGCTTAG [AGGCGGTCTAA_LTGcore_GA_RTGcore_CT] (site AGGCGGTCTAA) (LTG core: GA, RTG core: CT)” and “AGGCGGTGATGGGTTCTAACCTGTTGCTTTC [AGGCGGTCTAA_LTGcore_GA_RTGcore_GA] (site AGGCGGTCTAA) (LTG core: GA, RTG core: GA)” are within 0.2 log units of each other in “recombinant barcode read abundance (log10)” value: 0.09 for the first, 0.101 for the second.

“AGTCTTAAATGGGTTCTAACCTGTTGCCAAG [AGTCTTACTTG_LTGcore_AA_RTGcore_CT] (site AGTCTTACTTG) (LTG core: AA, RTG core: CT)” and “AGTCTTACTTGGGTTCTAACCTGTTGCCAAC [AGTCTTACTTG_LTGcore_CT_RTGcore_GT] (site AGTCTTACTTG) (LTG core: CT, RTG core: GT)” are within 0.2 log units of each other in “recombinant barcode read abundance (log10)” value: 0.182 for the first, 0.0371 for the second.

“AGTCTTACTTGGGTTCTAACCTGTTGCCACT [AGTCTTACTTG_LTGcore_CT_RTGcore_AG] (site AGTCTTACTTG) (LTG core: CT, RTG core: AG)” and “AGTCTTACTTGGGTTCTAACCTGTTGCCAGT [AGTCTTACTTG_LTGcore_CT_RTGcore_AC] (site AGTCTTACTTG) (LTG core: CT, RTG core: AC)” are within 0.2 log units of each other in “recombinant barcode read abundance (log10)” value: 0.0729 for the first, 0.0396 for the second.

“AGTCTTAGTTGGGTTCTAACCTGTTGCCAAC [AGTCTTACTTG_LTGcore_GT_RTGcore_GT] (site AGTCTTACTTG) (LTG core: GT, RTG core: GT)” and “AGTCTTATGTGGGTTCTAACCTGTTGCCAAG [AGTCTTACTTG_LTGcore_TG_RTGcore_CT] (site AGTCTTACTTG) (LTG core: TG, RTG core: CT)” are within 0.2 log units of each other in “recombinant barcode read abundance (log10)” value: 0 for the first, 0.0537 for the second.

“AGTCTTATGTGGGTTCTAACCTGTTGCCACA [AGTCTTACTTG_LTGcore_TG_RTGcore_TG] (site AGTCTTACTTG) (LTG core: TG, RTG core: TG)” and “ATGCTTTAGTGGGTTCTAACCTGTTGCCTCT [ATGCTTTCTAG_LTGcore_AG_RTGcore_AG] (site ATGCTTTCTAG) (LTG core: AG, RTG core: AG)” are within 0.2 log units of each other in “recombinant barcode read abundance (log10)” value: 0.0473 for the first, 0.0908 for the second.

“ATGCTTTATTGGGTTCTAACCTGTTGCCTAT [ATGCTTTCTAG_LTGcore_AT_RTGcore_AT] (site ATGCTTTCTAG) (LTG core: AT, RTG core: AT)” and “ATGCTTTCATGGGTTCTAACCTGTTGCCTAG [ATGCTTTCTAG_LTGcore_CA_RTGcore_CT] (site ATGCTTTCTAG) (LTG core: CA, RTG core: CT)” are within 0.2 log units of each other in “recombinant barcode read abundance (log10)” value: 0.153 for the first, 0.0483 for the second.

“ATGCTTTCTTGGGTTCTAACCTGTTGCCTCG [ATGCTTTCTAG_LTGcore_CT_RTGcore_CG] (site ATGCTTTCTAG) (LTG core: CT, RTG core: CG)” and “ATGCTTTCTTGGGTTCTAACCTGTTGCCTTA [ATGCTTTCTAG_LTGcore_CT_RTGcore_TA] (site ATGCTTTCTAG) (LTG core: CT, RTG core: TA)” are within 0.2 log units of each other in “recombinant barcode read abundance (log10)” value: 0.21 for the first, 0.0193 for the second.

First: ATGCTTTCTTGGGTTCTAACCTGTTGCCTTT [ATGCTTTCTAG_LTGcore_CT_RTGcore_AA] (site ATGCTTTCTAG) (LTG core: CT, RTG core: AA)
Second: ATGCTTTTCTGGGTTCTAACCTGTTGCCTAG [ATGCTTTCTAG_LTGcore_TC_RTGcore_CT] (site ATGCTTTCTAG) (LTG core: TC, RTG core: CT)
The “recombinant barcode read abundance (log10)” value of the first is lower: 0.103 for the first, 0.439 for the second.

“ATGCTTTTCTGGGTTCTAACCTGTTGCCTGA [ATGCTTTCTAG_LTGcore_TC_RTGcore_TC] (site ATGCTTTCTAG) (LTG core: TC, RTG core: TC)” and “ATGCTTTTTTGGGTTCTAACCTGTTGCCTAG [ATGCTTTCTAG_LTGcore_TT_RTGcore_CT] (site ATGCTTTCTAG) (LTG core: TT, RTG core: CT)” are within 0.2 log units of each other in “recombinant barcode read abundance (log10)” value: 0.187 for the first, 0.239 for the second.

“ATGTCCCAATGGGTTCTAACCTGTTGCTCAG [ATGTCCCCTGA_LTGcore_AA_RTGcore_CT] (site ATGTCCCCTGA) (LTG core: AA, RTG core: CT)” and “ATGTCCCCTTGGGTTCTAACCTGTTGCTCAA [ATGTCCCCTGA_LTGcore_CT_RTGcore_TT] (site ATGTCCCCTGA) (LTG core: CT, RTG core: TT)” are within 0.2 log units of each other in “recombinant barcode read abundance (log10)” value: 0.274 for the first, 0.0803 for the second.

Compared with “ATGTCCCCTTGGGTTCTAACCTGTTGCTCAG [ATGTCCCCTGA_LTGcore_CT_RTGcore_CT] (site ATGTCCCCTGA) (LTG core: CT, RTG core: CT)”, “ATGTCCCCTTGGGTTCTAACCTGTTGCTCCC [ATGTCCCCTGA_LTGcore_CT_RTGcore_GG] (site ATGTCCCCTGA) (LTG core: CT, RTG core: GG)” is lower in “recombinant barcode read abundance (log10)” value: 1.46 for the first, 0.175 for the second.

“ATGTCCCCTTGGGTTCTAACCTGTTGCTCGA [ATGTCCCCTGA_LTGcore_CT_RTGcore_TC] (site ATGTCCCCTGA) (LTG core: CT, RTG core: TC)” and “ATGTCCCCTTGGGTTCTAACCTGTTGCTCTT [ATGTCCCCTGA_LTGcore_CT_RTGcore_AA] (site ATGTCCCCTGA) (LTG core: CT, RTG core: AA)” are within 0.2 log units of each other in “recombinant barcode read abundance (log10)” value: 0.0646 for the first, 0.0454 for the second.

“ATGTCCCGATGGGTTCTAACCTGTTGCTCTC [ATGTCCCCTGA_LTGcore_GA_RTGcore_GA] (site ATGTCCCCTGA) (LTG core: GA, RTG core: GA)” and “CATATTACGTGGGTTCTAACCTGTTGCCTAG [CATATTACTAG_LTGcore_CG_RTGcore_CT] (site CATATTACTAG) (LTG core: CG, RTG core: CT)” are within 0.2 log units of each other in “recombinant barcode read abundance (log10)” value: 0.0444 for the first, 0.0547 for the second.

“CATATTACTTGGGTTCTAACCTGTTGCCTAA [CATATTACTAG_LTGcore_CT_RTGcore_TT] (site CATATTACTAG) (LTG core: CT, RTG core: TT)” and “CATATTACTTGGGTTCTAACCTGTTGCCTCA [CATATTACTAG_LTGcore_CT_RTGcore_TG] (site CATATTACTAG) (LTG core: CT, RTG core: TG)” are within 0.2 log units of each other in “recombinant barcode read abundance (log10)” value: 0.105 for the first, 0.0517 for the second.

“CATATTACTTGGGTTCTAACCTGTTGCCTCT [CATATTACTAG_LTGcore_CT_RTGcore_AG] (site CATATTACTAG) (LTG core: CT, RTG core: AG)” and “CATATTACTTGGGTTCTAACCTGTTGCCTTC [CATATTACTAG_LTGcore_CT_RTGcore_GA] (site CATATTACTAG) (LTG core: CT, RTG core: GA)” are within 0.2 log units of each other in “recombinant barcode read abundance (log10)” value: 0.0539 for the first, 0.084 for the second.

“CATATTACTTGGGTTCTAACCTGTTGCCTTT [CATATTACTAG_LTGcore_CT_RTGcore_AA] (site CATATTACTAG) (LTG core: CT, RTG core: AA)” and “CATATTAGGTGGGTTCTAACCTGTTGCCTCC [CATATTACTAG_LTGcore_GG_RTGcore_GG] (site CATATTACTAG) (LTG core: GG, RTG core: GG)” are within 0.2 log units of each other in “recombinant barcode read abundance (log10)” value: 0.0756 for the first, 0.117 for the second.

“CATATTATATGGGTTCTAACCTGTTGCCTAG [CATATTACTAG_LTGcore_TA_RTGcore_CT] (site CATATTACTAG) (LTG core: TA, RTG core: CT)” and “CATATTATCTGGGTTCTAACCTGTTGCCTAG [CATATTACTAG_LTGcore_TC_RTGcore_CT] (site CATATTACTAG) (LTG core: TC, RTG core: CT)” are within 0.2 log units of each other in “recombinant barcode read abundance (log10)” value: 0.0615 for the first, 0.127 for the second.

“CATATTATTTGGGTTCTAACCTGTTGCCTAA [CATATTACTAG_LTGcore_TT_RTGcore_TT] (site CATATTACTAG) (LTG core: TT, RTG core: TT)” and “CATATTATTTGGGTTCTAACCTGTTGCCTAG [CATATTACTAG_LTGcore_TT_RTGcore_CT] (site CATATTACTAG) (LTG core: TT, RTG core: CT)” are within 0.2 log units of each other in “recombinant barcode read abundance (log10)” value: 0.0172 for the first, 0 for the second.

“CGAGCCCAGTGGGTTCTAACCTGTTGCTGCT [CGAGCCCCTCA_LTGcore_AG_RTGcore_AG] (site CGAGCCCCTCA) (LTG core: AG, RTG core: AG)” and “CGAGCCCATTGGGTTCTAACCTGTTGCTGAG [CGAGCCCCTCA_LTGcore_AT_RTGcore_CT] (site CGAGCCCCTCA) (LTG core: AT, RTG core: CT)” are within 0.2 log units of each other in “recombinant barcode read abundance (log10)” value: 0.189 for the first, 0.104 for the second.

For “CGAGCCCCCTGGGTTCTAACCTGTTGCTGGG [CGAGCCCCTCA_LTGcore_CC_RTGcore_CC] (site CGAGCCCCTCA) (LTG core: CC, RTG core: CC)”, the “recombinant barcode read abundance (log10)” value was 0.0674.
